Patent publication US11420958B2, “Aryl and heteroaryl substituted indole compounds” (BRISTOL-MYERS SQUIBB COMPANY, priority 2017, dated 2022)
pIC50: −log10 of the molar value.

Legend:
Type in all cases: cell-based
human TLR9 = human TLR9 (Homo sapiens (Human), UniProt Q9NR96); experiment: TLR9 inhibition reporter assay (HEK-Blue, SEAP); conditions: HEK-Blue cells overexpressing human TLR9, ODN2006 5 nM stimulation
How it was run: (§1)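 Cells are treated with compound over a 0.05 nM–50 μM final range for 30 min at room temperature before agonist addition: gardiquimod at 7.5 μM for TLR7, R848 at 15.9 μM for TLR8, ODN2006 at 5 nM for TLR9. SEAP is measured after 22 h at 37 °C.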

human TLR7 = human TLR7 (Homo sapiens (Human), UniProt Q9NYK1); experiment: TLR7 inhibition reporter assay (HEK-Blue, SEAP); conditions: HEK-Blue cells overexpressing human TLR7, gardiquimod 7.5 μM stimulation
Chain of human TLR7 (Q9NYK1 27-1049): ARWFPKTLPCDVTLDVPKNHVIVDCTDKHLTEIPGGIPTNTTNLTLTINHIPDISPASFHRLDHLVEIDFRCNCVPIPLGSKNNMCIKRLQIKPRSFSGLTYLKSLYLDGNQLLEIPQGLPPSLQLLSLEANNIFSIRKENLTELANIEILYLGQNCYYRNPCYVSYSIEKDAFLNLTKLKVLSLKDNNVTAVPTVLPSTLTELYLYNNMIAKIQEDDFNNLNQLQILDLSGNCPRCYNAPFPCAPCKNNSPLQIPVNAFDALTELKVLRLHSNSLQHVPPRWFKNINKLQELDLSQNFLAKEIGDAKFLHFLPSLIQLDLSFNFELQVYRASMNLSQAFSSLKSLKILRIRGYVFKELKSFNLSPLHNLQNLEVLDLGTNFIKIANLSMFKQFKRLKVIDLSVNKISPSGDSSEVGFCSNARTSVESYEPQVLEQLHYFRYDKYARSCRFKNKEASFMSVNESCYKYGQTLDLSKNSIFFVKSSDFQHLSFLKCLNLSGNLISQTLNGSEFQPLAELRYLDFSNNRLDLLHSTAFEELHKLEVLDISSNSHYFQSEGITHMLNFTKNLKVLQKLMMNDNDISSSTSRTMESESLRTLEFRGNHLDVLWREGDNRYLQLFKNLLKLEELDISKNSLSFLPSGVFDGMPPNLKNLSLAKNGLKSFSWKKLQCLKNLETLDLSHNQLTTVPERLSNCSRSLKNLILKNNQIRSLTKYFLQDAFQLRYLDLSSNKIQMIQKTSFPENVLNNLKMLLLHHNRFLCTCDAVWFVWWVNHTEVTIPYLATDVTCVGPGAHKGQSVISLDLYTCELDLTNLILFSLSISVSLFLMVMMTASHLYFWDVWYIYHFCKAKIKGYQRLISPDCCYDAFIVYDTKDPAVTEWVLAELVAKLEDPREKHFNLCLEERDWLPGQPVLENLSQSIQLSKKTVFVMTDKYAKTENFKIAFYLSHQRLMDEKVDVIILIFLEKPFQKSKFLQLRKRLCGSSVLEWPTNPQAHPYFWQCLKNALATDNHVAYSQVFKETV
How it was run: as §1

human TLR8 = human TLR8 (Homo sapiens (Human), UniProt Q9NR97); experiment: TLR8 inhibition reporter assay (HEK-Blue, SEAP); conditions: HEK-Blue cells overexpressing human TLR8, R848 15.9 μM stimulation
Chain of human TLR8 (Q9NR97 27-1041): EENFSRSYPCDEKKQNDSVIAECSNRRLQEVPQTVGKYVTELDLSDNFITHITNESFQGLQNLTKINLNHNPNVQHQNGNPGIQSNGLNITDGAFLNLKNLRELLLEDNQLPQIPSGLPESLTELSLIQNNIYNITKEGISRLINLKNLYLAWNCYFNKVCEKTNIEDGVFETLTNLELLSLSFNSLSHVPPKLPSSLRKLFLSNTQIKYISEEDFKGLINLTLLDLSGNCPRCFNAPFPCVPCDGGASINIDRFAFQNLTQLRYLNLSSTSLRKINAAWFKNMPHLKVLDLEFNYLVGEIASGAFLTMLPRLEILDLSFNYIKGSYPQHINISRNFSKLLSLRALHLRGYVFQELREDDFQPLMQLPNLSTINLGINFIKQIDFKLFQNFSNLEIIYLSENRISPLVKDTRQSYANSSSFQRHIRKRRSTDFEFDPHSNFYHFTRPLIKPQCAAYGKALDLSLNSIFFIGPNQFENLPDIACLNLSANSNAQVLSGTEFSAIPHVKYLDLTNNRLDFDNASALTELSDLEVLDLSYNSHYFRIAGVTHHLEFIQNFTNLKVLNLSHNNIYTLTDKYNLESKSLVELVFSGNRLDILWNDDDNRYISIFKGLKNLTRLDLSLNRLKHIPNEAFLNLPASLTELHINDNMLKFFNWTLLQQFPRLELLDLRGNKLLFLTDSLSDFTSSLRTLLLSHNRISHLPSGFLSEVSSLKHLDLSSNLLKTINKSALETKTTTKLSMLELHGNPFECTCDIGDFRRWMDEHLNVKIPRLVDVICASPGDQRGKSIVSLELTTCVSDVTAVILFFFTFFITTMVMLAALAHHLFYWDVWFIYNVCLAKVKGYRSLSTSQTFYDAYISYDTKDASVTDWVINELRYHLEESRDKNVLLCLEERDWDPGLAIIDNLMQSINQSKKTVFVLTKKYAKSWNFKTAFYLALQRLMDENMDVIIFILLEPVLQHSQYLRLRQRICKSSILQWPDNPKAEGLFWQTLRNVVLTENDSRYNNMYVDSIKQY
How it was run: as §1

Chain of human TLR9 (Q9NR96 26-1032): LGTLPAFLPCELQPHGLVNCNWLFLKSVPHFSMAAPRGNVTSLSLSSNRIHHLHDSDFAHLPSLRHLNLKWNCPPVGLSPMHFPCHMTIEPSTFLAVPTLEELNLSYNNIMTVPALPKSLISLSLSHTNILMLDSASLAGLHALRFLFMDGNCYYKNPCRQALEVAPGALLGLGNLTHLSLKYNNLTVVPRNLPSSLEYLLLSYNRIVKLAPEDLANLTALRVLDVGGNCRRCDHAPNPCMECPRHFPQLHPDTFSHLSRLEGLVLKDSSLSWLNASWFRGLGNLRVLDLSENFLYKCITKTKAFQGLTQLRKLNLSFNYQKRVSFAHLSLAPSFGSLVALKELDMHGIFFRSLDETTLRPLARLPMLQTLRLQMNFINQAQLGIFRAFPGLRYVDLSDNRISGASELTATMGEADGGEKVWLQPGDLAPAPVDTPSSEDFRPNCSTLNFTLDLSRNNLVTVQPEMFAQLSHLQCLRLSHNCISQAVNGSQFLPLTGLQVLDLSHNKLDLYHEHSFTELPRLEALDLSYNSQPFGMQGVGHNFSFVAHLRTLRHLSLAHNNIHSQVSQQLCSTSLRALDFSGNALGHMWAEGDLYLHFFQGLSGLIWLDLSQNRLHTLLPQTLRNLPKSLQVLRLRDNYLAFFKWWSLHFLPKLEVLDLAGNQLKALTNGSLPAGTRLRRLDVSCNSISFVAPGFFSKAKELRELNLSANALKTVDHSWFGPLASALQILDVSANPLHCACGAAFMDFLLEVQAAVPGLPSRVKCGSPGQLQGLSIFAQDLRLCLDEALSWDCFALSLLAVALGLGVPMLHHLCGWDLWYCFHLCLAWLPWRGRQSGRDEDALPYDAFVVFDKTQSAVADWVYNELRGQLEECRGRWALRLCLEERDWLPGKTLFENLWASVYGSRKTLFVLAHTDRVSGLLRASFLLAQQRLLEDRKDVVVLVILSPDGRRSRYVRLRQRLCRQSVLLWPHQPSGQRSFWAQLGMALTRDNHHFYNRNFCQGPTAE

| SMILES | pIC50 (human TLR9) | pIC50 (human TLR7) | pIC50 (human TLR8) |
| --- | --- | --- | --- |
| Cc1cc(-c2[nH]c3ccc(-c4nc(C(=O)NC5CCCNC5)co4)cc3c2C(C)C)cc(C)n1 (stereo not drawn) [Example 290, 2-(2-(2,6-dimethylpyridin-4-yl)-3-isopropyl-1H-indol-5-yl)-N-(piperidin-3-yl)oxazole-4-carboxamide] | 5.47 | 7.42 | 7.77 |
| Cc1cc(-c2[nH]c3ccc(-c4nc(C(=O)NCCC5CCCN5)co4)cc3c2C(C)C)cc(C)n1 (stereo not drawn) [Example 291, 2-(2-(2,6-dimethylpyridin-4-yl)-3-isopropyl-1H-indol-5-yl)-N-(2-(pyrrolidin-2-yl)ethyl)oxazole-4-carboxamide] | 6.31 | 7.17 | 7.64 |
| Cc1cc(-c2[nH]c3ccc(-c4nnc(C5CCCN(C(C)C)C5)o4)cc3c2C(C)C)ccn1 (stereo not drawn) [Example 292, 2-(3-isopropyl-2-(2-methylpyridin-4-yl)-1H-indol-5-yl)-5-(1-isopropylpiperidin-3-yl)-1,3,4-oxadiazole] | 6.26 | 7.36 | 8.60 |
| CNc1ccc(-c2ccc3[nH]c(-c4ccnc(C)c4)c(C(C)C)c3c2)cn1 [Example 293, 5-(3-isopropyl-2-(2-methylpyridin-4-yl)-1H-indol-5-yl)-N-methylpyridin-2-amine] | 4.40 | 7.17 | 8.01 |
| Cc1cc(-c2[nH]c3ccc(-c4ccc(NC(=O)C(F)(F)F)nc4)cc3c2C(C)C)ccn1 [Example 295, 2,2,2-trifluoro-N-(5-(3-isopropyl-2-(2-methylpyridin-4-yl)-1H-indol-5-yl)pyridin-2-yl)acetamide] | 4.75 | 7.96 | 8.57 |
| Cc1cc(-c2[nH]c3ccc(-c4nnc(C5CN6CCC5CC6)o4)cc3c2C(C)C)cc(C)n1 (stereo not drawn) [Example 296, 2-(2-(2,6-dimethylpyridin-4-yl)-3-isopropyl-1H-indol-5-yl)-5-(quinuclidin-3-yl)-1,3,4-oxadiazole] | 6.51 | 8.32 | 8.77 |
| Cc1cc(-c2[nH]c3ccc(-c4nnc(C5CN6CCC5CC6)o4)cc3c2C(C)C)cc(C)n1 (stereo not drawn) [Example 297, 2-(2-(2,6-dimethylpyridin-4-yl)-3-isopropyl-1H-indol-5-yl)-5-(quinuclidin-3-yl)-1,3,4-oxadiazole] | 6.95 | 8.21 | 8.51 |
| Cc1cc(-c2[nH]c3ccc(-c4nnc(C5CCCN(C(C)C)C5)o4)cc3c2C(C)C)ccn1 (stereo not drawn) [Example 298, 2-(3-isopropyl-2-(2-methylpyridin-4-yl)-1H-indol-5-yl)-5-(1-isopropylpiperidin-3-yl)-1,3,4-oxadiazole] | 6.36 | 7.60 | 8.57 |
| Cc1cc(-c2[nH]c3ccc(-c4ccnc(N5CCN(C(C)C)CC5)c4)cc3c2C(C)C)ccn1 [Example 299, 3-isopropyl-5-(2-(4-isopropylpiperazin-1-yl)pyridin-4-yl)-2-(2-methylpyridin-4-yl)-1H-indole] | 5.83 | 6.92 | 7.96 |
| CCN(CCN(C)C)C(=O)c1nnc(-c2ccc3[nH]c(-c4cc(C)nc(C)c4)c(C(C)C)c3c2)o1 [Example 300, N-(2-(dimethylamino)ethyl)-5-(2-(2,6-dimethylpyridin-4-yl)-3-isopropyl-1H-indol-5-yl)-N-ethyl-1,3,4-oxadiazole-2-carboxamide] | 6.46 | 8.00 | 8.70 |
| Cc1cc(-c2[nH]c3ccc(-c4ccc(N5CCN(C)CC5)nc4)cc3c2C(C)C)cc(C)n1 [Example 301, 2-(2,6-dimethylpyridin-4-yl)-3-isopropyl-5-(6-(4-methylpiperazin-1-yl)pyridin-3-yl)-1H-indole] | 6.36 | 8.28 | 8.44 |
| Cc1cc(-c2[nH]c3ccc(-c4cc(NC(=O)OC(C)(C)C)c5nccn5c4)cc3c2C(C)C)cc(C)n1 [Example 303, tert-butyl (6-(2-(2,6-dimethylpyridin-4-yl)-3-isopropyl-1H-indol-5-yl)imidazo[1,2-a]pyridin-8-yl)carbamate] | 4.48 | 6.76 | 6.79 |
| Cc1cc(-c2[nH]c3ccc(-c4cccnc4)cc3c2C(C)C)cc(C)n1 [Example 304, 2-(2,6-dimethylpyridin-4-yl)-3-isopropyl-5-(pyridin-3-yl)-1H-indole] | 4.64 | 7.20 | 7.16 |
| Cc1cc(-c2[nH]c3ccc(-c4cc5c(s4)CN(C(=O)CN(C)C)CC5)cc3c2C(C)C)ccn1 [Example 305, 2-(dimethylamino)-1-(2-(3-isopropyl-2-(2-methylpyridin-4-yl)-1H-indol-5-yl)-4,7-dihydrothieno[2,3-c]pyridin-6(5H)-yl)ethan-1-one] | 5.39 | 7.68 | 7.89 |
| Cc1cc(-c2[nH]c3ccc(-c4ccc(N5CCN(C(C)C)CC5)nc4)cc3c2C(C)C)cc(C)n1 [Example 306, 2-(2,6-dimethylpyridin-4-yl)-3-isopropyl-5-(6-(4-isopropylpiperazin-1-yl)pyridin-3-yl)-1H-indole] | 6.54 | 8.32 | 8.32 |
| Cc1cc(-c2[nH]c3ccc(-c4cnc(N)cn4)cc3c2C(C)C)cc(C)n1 [Example 307, 5-(2-(2,6-dimethylpyridin-4-yl)-3-isopropyl-1H-indol-5-yl)pyrazin-2-amine] | 4.68 | 7.96 | 7.74 |
| Cc1cc(-c2[nH]c3ccc(-c4nc5c(s4)CNCC5)cc3c2C(C)C)cc(C)n1 [Example 308, 2-(2-(2,6-dimethylpyridin-4-yl)-3-isopropyl-1H-indol-5-yl)-4,5,6,7-tetrahydrothiazolo[5,4-c]pyridine] | 6.44 | 8.59 | 9.30 |
| Cc1cc(-c2[nH]c3ccc(-c4nc5c(s4)CN(CC(=O)N(C)C)CC5)cc3c2C(C)C)cc(C)n1 [Example 309, 2-(2-(2-(2,6-dimethylpyridin-4-yl)-3-isopropyl-1H-indol-5-yl)-6,7-dihydrothiazolo[5,4-c]pyridin-5(4H)-yl)-N,N-dimethylacetamide] | 5.25 | 7.62 | 8.46 |
| Cc1cc(-c2[nH]c3ccc(-c4cc5c(s4)CN(CC(=O)N(C)C)CC5)cc3c2C(C)C)ccn1 [Example 311, 2-(2-(3-isopropyl-2-(2-methylpyridin-4-yl)-1H-indol-5-yl)-4,7-dihydrothieno[2,3-c]pyridin-6(5H)-yl)-N,N-dimethylacetamide] | 5.47 | 6.84 | 7.62 |
| Cc1cc(-c2[nH]c3ccc(-c4nnc(C5CCCN(C(C)C)C5)o4)cc3c2C(C)C)ccn1 (stereo not drawn) [Example 312, 2-(3-isopropyl-2-(2-methylpyridin-4-yl)-1H-indol-5-yl)-5-(1-isopropylpiperidin-3-yl)-1,3,4-oxadiazole] | 6.20 | 7.44 | 8.62 |
| Cc1cc(-c2[nH]c3ccc(-c4ccc(C(=O)N5CCC(N(C)C)CC5)cc4)cc3c2C(C)C)ccn1 [Example 313, (4-(dimethylamino)piperidin-1-yl)(4-(3-isopropyl-2-(2-methylpyridin-4-yl)-1H-indol-5-yl)phenyl)methanone] | 6.49 | 7.89 | 8.33 |
| Cc1cc(-c2[nH]c3ccc(-c4nnc(C5CCCN(C(C)C)C5)o4)cc3c2CC(F)F)cc(C)n1 (stereo not drawn) [Example 314, 2-(3-(2,2-difluoroethyl)-2-(2,6-dimethylpyridin-4-yl)-1H-indol-5-yl)-5-(1-isopropylpiperidin-3-yl)-1,3,4-oxadiazole] | 6.97 | 7.37 | 7.96 |
| CNC(=O)CN1CCc2cc(-c3ccc4[nH]c(-c5ccnc(C)c5)c(C(C)C)c4c3)sc2C1 [Example 315, 2-(2-(3-isopropyl-2-(2-methylpyridin-4-yl)-1H-indol-5-yl)-4,7-dihydrothieno[2,3-c]pyridin-6(5H)-yl)-N-methylacetamide] | 4.32 | 7.03 | 7.77 |
| CNC(=O)c1ccc(-c2ccc3[nH]c(-c4cc(C)nc(C)c4)c(C(C)C)c3c2)cn1 [Example 316, 5-(2-(2,6-dimethylpyridin-4-yl)-3-isopropyl-1H-indol-5-yl)-N-methylpicolinamide] | < 4.30 | 7.55 | 7.19 |
| Cc1cc(-c2[nH]c3ccc(-c4ccc(C(N)=O)nc4)cc3c2C(C)C)cc(C)n1 [Example 317, 5-(2-(2,6-dimethylpyridin-4-yl)-3-isopropyl-1H-indol-5-yl)picolinamide] | < 4.30 | 8.11 | 7.59 |
| Cc1cc(-c2[nH]c3ccc(-c4nnc(N)o4)cc3c2C(C)C)cc(C)n1 [Example 318, 5-(2-(2,6-dimethylpyridin-4-yl)-3-isopropyl-1H-indol-5-yl)-1,3,4-oxadiazol-2-amine] | 5.20 | 7.52 | 7.47 |
| Cc1cc(-c2[nH]c3ccc(-c4ccnc(N5CCN(C)CC5)c4)cc3c2C(C)C)cc(C)n1 [Example 319, 2-(2,6-dimethylpyridin-4-yl)-3-isopropyl-5-(2-(4-methylpiperazin-1-yl)pyridin-4-yl)-1H-indole] | 6.29 | 8.15 | 8.01 |
| Cc1cc(-c2[nH]c3ccc(-c4ccnc(N5CCNCC5)c4)cc3c2C(C)C)cc(C)n1 [Example 320, 2-(2,6-dimethylpyridin-4-yl)-3-isopropyl-5-(2-(piperazin-1-yl)pyridin-4-yl)-1H-indole] | 5.53 | 7.15 | 7.07 |
